Several values for one entry are separate records, joined by “and”; a condition that tells them apart may be missing. Equal values may be shown once. Inconclusive results and toxic doses are left out.
Tested on: L1210 leukemia ip in BDF1 mice, survival T/C
Test: NCI In Vivo Anticancer Drug Screen. Data for tumor model L1210 Leukemia (intraperitoneal) in B6D2F1 (BDF1) mice
Details: endpoint: mean survival time, higher = longer survival
How it was run: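 Ratio derived from survival: compound-dosed mice over vehicle-dosed mice, all bearing a transplantable tumor.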

[1] = dose: 25.0 mg/kg/injection, schedule: Q01DX009 (ip), vehicle: saline
[2] = dose: 75.0 mg/kg/injection, schedule: Q01DX001 (ip), vehicle: saline
[3] = dose: 150.0 mg/kg/injection, schedule: Q01DX001 (ip), vehicle: saline
[4] = dose: 100.0 mg/kg/injection, schedule: Q01DX001 (ip), vehicle: Klucel (hydroxypropylcellulose) (HPC)
[5] = dose: 100.0 mg/kg/injection, schedule: Q01DX009 (ip), vehicle: Klucel (hydroxypropylcellulose) (HPC)
[6] = dose: 100.0 mg/kg/injection, schedule: Q04DX003 (ip), vehicle: Klucel (hydroxypropylcellulose) (HPC)
[7] = dose: 200.0 mg/kg/injection, schedule: Q01DX001 (ip), vehicle: Klucel (hydroxypropylcellulose) (HPC)
[8] = dose: 200.0 mg/kg/injection, schedule: Q01DX009 (ip), vehicle: Klucel (hydroxypropylcellulose) (HPC)
[9] = dose: 200.0 mg/kg/injection, schedule: Q04DX003 (ip), vehicle: Klucel (hydroxypropylcellulose) (HPC)
[10] = dose: 400.0 mg/kg/injection, schedule: Q01DX001 (ip), vehicle: Klucel (hydroxypropylcellulose) (HPC)
[11] = dose: 400.0 mg/kg/injection, schedule: Q01DX009 (ip), vehicle: Klucel (hydroxypropylcellulose) (HPC)
[12] = dose: 400.0 mg/kg/injection, schedule: Q04DX003 (ip), vehicle: Klucel (hydroxypropylcellulose) (HPC)
[13] = dose: 50.0 mg/kg/injection, schedule: Q01DX009 (ip), vehicle: saline with Tween-80
[14] = dose: 100.0 mg/kg/injection, schedule: Q01DX009 (ip), vehicle: saline with Tween-80
[15] = dose: 100.0 mg/kg/injection, schedule: Q04DX003 (ip), vehicle: saline with Tween-80
[16] = dose: 200.0 mg/kg/injection, schedule: Q04DX003 (ip), vehicle: saline with Tween-80
[17] = dose: 400.0 mg/kg/injection, schedule: Q04DX003 (ip), vehicle: saline with Tween-80
[18] = dose: 100.0 mg/kg/injection, schedule: Q04DX002 (ip), vehicle: other
[19] = dose: 200.0 mg/kg/injection, schedule: Q04DX002 (ip), vehicle: other

In the case of `Cc1[nH]nc(C(N)=O)c1N=NN(C)C`, the T/C (dose: 12.5 mg/kg/injection, schedule: Q01DX009 (ip), vehicle: saline) is reported as 108 % of control, the T/C (dose: 25.0 mg/kg/injection, schedule: Q01DX001 (ip), vehicle: saline) is reported as 121 % of control and the T/C [1] is reported as 124 % of control. The T/C (dose: 50.0 mg/kg/injection, schedule: Q01DX009 (ip), vehicle: saline) was 183 % of control, the T/C [2] was 112 % of control and 124 % of control and the T/C (dose: 75.0 mg/kg/injection, schedule: Q01DX009 (ip), vehicle: saline) was 204 % of control. For the same compound, the T/C [3] was 104 % of control and 216 % of control and the T/C (dose: 150.0 mg/kg/injection, schedule: Q01DX009 (ip), vehicle: saline) was 186 % of control.

With `Cc1ccc([N+](=O)[O-])cc1NC(=O)N(C)Cc1ccc(Cl)cc1` the T/C [4] was 90 % of control, the T/C [5] was 89 % of control and 90 % of control and the T/C [6] was 102 % of control. The T/C [7] was 98 % of control, the T/C [8] was 94 % of control and 97 % of control and the T/C [9] was 98 % of control. For the same compound, the T/C [10] was 93 % of control, the T/C [11] was 93 % of control and 90 % of control and the T/C [12] was 100 % of control and 122 % of control.

In the case of `COc1ccc(N=Nc2sc(N)nc2-c2ccc(Cl)cc2)cc1`, the T/C (dose: 12.5 mg/kg/injection, schedule: Q01DX001 (ip), vehicle: saline with Tween-80) is reported as 93 % of control, the T/C (dose: 25.0 mg/kg/injection, schedule: Q01DX001 (ip), vehicle: saline with Tween-80) is reported as 90 % of control and the T/C (dose: 50.0 mg/kg/injection, schedule: Q01DX001 (ip), vehicle: saline with Tween-80) is reported as 101 % of control.

`Fc1ccc(Nc2c3ccccc3nc3ccccc23)cc1` was tested, and the T/C (dose: 25.0 mg/kg/injection, schedule: Q01DX009 (ip), vehicle: saline with Tween-80) was 92 % of control, the T/C [13] was 118 % of control and the T/C [14] was 116 % of control.

`S=C(C/C=C/CC(=S)SN(c1ccccc1)c1ccccc1)SN(c1ccccc1)c1ccccc1` was tested, and the T/C [5] was 91 % of control, the T/C [8] was 95 % of control and the T/C [11] was 90 % of control.

For `CCCCNC(=S)NCCCC`, the T/C [5] was 92 % of control, the T/C (dose: 100.0 mg/kg/injection, schedule: Q04DX002 (ip), vehicle: Klucel (hydroxypropylcellulose) (HPC)) was 98 % of control and the T/C [8] was 98 % of control. The T/C (dose: 200.0 mg/kg/injection, schedule: Q04DX002 (ip), vehicle: Klucel (hydroxypropylcellulose) (HPC)) was 104 % of control.

`Cn1cnc([N+](=O)[O-])c1[Se]c1nc(N)nc2c1ncn2C1CC(O)C(CO)O1` (stereo unspecified) was tested, and the T/C (dose: 16.5 mg/kg/injection, schedule: Q01DX005 (ip), vehicle: saline) was 159 % of control, the T/C (dose: 25.0 mg/kg/injection, schedule: Q01DX005 (ip), vehicle: saline) was 202 % of control and the T/C [1] was 150 % of control. For the same compound, the T/C (dose: 37.5 mg/kg/injection, schedule: Q01DX005 (ip), vehicle: saline) was 219 % of control, the T/C (dose: 37.5 mg/kg/injection, schedule: Q01DX009 (ip), vehicle: saline) was 158 % of control and the T/C (dose: 50.0 mg/kg/injection, schedule: Q01DX005 (ip), vehicle: saline) was 98 % of control. The T/C (dose: 62.5 mg/kg/injection, schedule: Q01DX005 (ip), vehicle: saline) was 117 % of control and the T/C (dose: 62.5 mg/kg/injection, schedule: Q01DX009 (ip), vehicle: saline) was 105 % of control.

`CCP(=O)(CC)CC` was tested, and the T/C (dose: 1000.0 mg/kg/injection, schedule: Q01DX Z (ip), vehicle: saline) was 104 % of control and the T/C (dose: 2000.0 mg/kg/injection, schedule: Q01DX Z (ip), vehicle: saline) was 101 % of control.

With `O=c1[nH]c(/C=C/c2ccccc2)c(S(=O)(=O)N2CCCCC2)c(=O)[nH]1` the T/C [4] was 93 % of control, the T/C [7] was 87 % of control and the T/C [10] was 93 % of control.

In the case of `c1cc[c]([Ge]([c]2ccccc2)([c]2ccccc2)[c]2cc[c]([Ge]([c]3ccccc3)([c]3ccccc3)[c]3ccccc3)cc2)cc1`, the T/C (dose: 100.0 mg/kg/injection, schedule: Q04DX002 (ip), vehicle: saline with Tween-80) is reported as 97 % of control, the T/C (dose: 200.0 mg/kg/injection, schedule: Q04DX002 (ip), vehicle: saline with Tween-80) is reported as 87 % of control and the T/C (dose: 400.0 mg/kg/injection, schedule: Q04DX002 (ip), vehicle: saline with Tween-80) is reported as 91 % of control.

`CCOC(=O)C(CC(=O)c1ccccc1)C(C)=O` (stereo unspecified) was tested, and the T/C [13] was 97 % of control, the T/C [14] was 93 % of control and the T/C (dose: 200.0 mg/kg/injection, schedule: Q01DX009 (ip), vehicle: saline with Tween-80) was 97 % of control.

For `O=C1C=CC(=O)c2[nH]c(-c3ccccc3)cc21`, the T/C (dose: 12.5 mg/kg/injection, schedule: Q04DX002 (ip), vehicle: Klucel (hydroxypropylcellulose) (HPC)) was 93 % of control and the T/C (dose: 25.0 mg/kg/injection, schedule: Q04DX002 (ip), vehicle: Klucel (hydroxypropylcellulose) (HPC)) was 105 % of control.

With `CCCCCC(OCC)(OCC)OCC` the T/C [5] was 95 % of control, the T/C [6] was 104 % of control and the T/C [8] was 96 % of control. For the same compound, the T/C [9] was 93 % of control, the T/C [11] was 92 % of control and the T/C [12] was 93 % of control.

In the case of `CCC(C)(CC)NC(C)=O`, the T/C [6] is reported as 99 % of control and the T/C [9] is reported as 103 % of control.

With `COC(=O)C1=CC(C(=O)OC)C(C(=O)OC)N2C=CSC2(C)C1` (stereo unspecified) the T/C [15] was 96 % of control, the T/C [16] was 96 % of control and the T/C [17] was 93 % of control.

With `Brc1ccc(/C(=N/Nc2ccccc2)Oc2ccccc2)cc1` the T/C [15] was 94 % of control, the T/C [16] was 94 % of control and the T/C [17] was 102 % of control.

In the case of `c1ccc2c(c1)Cc1ccccc1C2`, the T/C [18] is reported as 110 % of control, the T/C [19] is reported as 94 % of control and the T/C (dose: 400.0 mg/kg/injection, schedule: Q04DX002 (ip), vehicle: other) is reported as 113 % of control.

With `O=C(COc1ccc(Cl)cc1C(=O)O)NCc1cccc2ccccc12` the T/C [6] was 97 % of control, the T/C [9] was 98 % of control and the T/C [12] was 100 % of control.

In the case of `O=NN(CCCl)C(=O)NC(Cc1ccccc1)C(=O)O` (stereo unspecified), the T/C (dose: 12.0 mg/kg/injection, schedule: Q01DX001 (ip), vehicle: gum acacia) is reported as 118 % of control, the T/C (dose: 28.0 mg/kg/injection, schedule: Q01DX001 (ip), vehicle: gum acacia) is reported as 188 % of control and the T/C (dose: 42.0 mg/kg/injection, schedule: Q01DX001 (ip), vehicle: gum acacia) is reported as 195 % of control. The T/C (dose: 63.0 mg/kg/injection, schedule: Q01DX001 (ip), vehicle: gum acacia) was 256 % of control, the T/C (dose: 112.0 mg/kg/injection, schedule: Q01DX001 (ip), vehicle: gum acacia) was 163 % of control and the T/C (dose: 168.0 mg/kg/injection, schedule: Q01DX001 (ip), vehicle: gum acacia) was 120 % of control.

In the case of `COc1ccc(O)c(CC(C)C)c1`, the T/C (dose: 100.0 mg/kg/injection, schedule: Q04DX003 (ip), vehicle: acetone) is reported as 96 % of control, the T/C (dose: 200.0 mg/kg/injection, schedule: Q04DX003 (ip), vehicle: acetone) is reported as 102 % of control and the T/C (dose: 400.0 mg/kg/injection, schedule: Q04DX003 (ip), vehicle: acetone) is reported as 93 % of control.

With `Cc1ccc(S(=O)(=O)NC(=O)NCCC(C)C)cc1` the T/C [15] was 102 % of control, the T/C [16] was 100 % of control and the T/C [17] was 96 % of control.

In the case of `O=C1c2ccccc2C(=O)N1OCCCCCCON1C(=O)c2ccccc2C1=O`, the T/C (dose: 100.0 mg/kg/injection, schedule: Q04DX003 (ip), vehicle: saline) is reported as 92 % of control, the T/C (dose: 200.0 mg/kg/injection, schedule: Q04DX003 (ip), vehicle: saline) is reported as 94 % of control and the T/C (dose: 400.0 mg/kg/injection, schedule: Q04DX003 (ip), vehicle: saline) is reported as 97 % of control.

With `CC1(C)[C@@H]2CC[C@@]1(CS(=O)(=O)O)C(=O)C2` the T/C [18] was 95 % of control and the T/C [19] was 92 % of control.

In the case of `CCN(CC)CCNC(=O)c1ccc2nc(N)sc2c1`, the T/C [2] is reported as 96 % of control and the T/C [3] is reported as 91 % of control.

In the case of `NNc1nc(Nc2ccccc2)nc(Nc2ccccc2)n1`, the T/C (dose: 100.0 mg/kg/injection, schedule: Q01DX001 (ip), vehicle: saline) is reported as 89 % of control, the T/C (dose: 200.0 mg/kg/injection, schedule: Q01DX001 (ip), vehicle: saline) is reported as 95 % of control and the T/C (dose: 400.0 mg/kg/injection, schedule: Q01DX001 (ip), vehicle: saline) is reported as 96 % of control.

`COc1ccccc1CN1CCCN(Cc2ccccc2OC)C1c1ccc(C2N(Cc3ccccc3OC)CCCN2Cc2ccccc2OC)cc1` was tested, and the T/C (dose: 100.0 mg/kg/injection, schedule: Q01DX001 (ip), vehicle: acetone) was 102 % of control, the T/C (dose: 200.0 mg/kg/injection, schedule: Q01DX001 (ip), vehicle: acetone) was 96 % of control and the T/C (dose: 400.0 mg/kg/injection, schedule: Q01DX001 (ip), vehicle: acetone) was 96 % of control.
